According to paper PMC3372685 (Biochemical Pharmacology, 2012):
Where two headings read alike, the source gives them in different places.

What was measured:
zebrafish α7 nAChR [1] = molecular target: T1, zebrafish α7 nAChR (Danio rerio, UniProt Q800C7); test: Agonist-evoked responses, two-electrode voltage clamp in Xenopus oocytes; type: cell-based; conditions: for Activation of fish α7 nAChR: prototypical α7-selective agonists; for Emax: read-out: Imax; for Agonist type compared to ACh: α7
zebrafish α4β2 nAChR [2] = molecular target: T2, zebrafish α4β2 nAChR (Danio rerio, UniProt E7F4S7+Q0PJT8); test: as above; type: cell-based; conditions: for Activation of α4β2 receptors by probe concentration: 30 µM 4OH-GTS-21 and tropane, 300 µM choline; for Emax: read-out: Imax
[3] = tested on: zebrafish heteromeric nAChR subtypes (α3β4, α1β1bεδ, α2β2, α4β2); type: cell-based, zebrafish (Danio rerio); conditions: co-application, 30 µM 4OH-GTS-21 and tropane, 300 µM choline
human α7 nAChR = conditions: read-out: EC50 for human α7; used as probe concentration; cited from earlier work
zebrafish α3β4 nAChR [4] = molecular target: T3, zebrafish α3β4 nAChR (Danio rerio, UniProt A0A0R4ISQ3+A0A8M1QHJ5); test: Inhibition of ACh-evoked responses by co-applied mecamylamine in Xenopus oocytes; type: cell-based
[5] = tested on: human and zebrafish α3β4 and α4β2 nAChR; type: cell-based; conditions: α3β4 and α4β2, repeated application protocol, low concentration of mecamylamine
[6] = molecular target: T4, zebrafish muscle α1β1bεδ nAChR (Danio rerio, UniProt A2BG85+G1FMP8+Q75XT1+Q98880); conditions: for IC50: α1β1bεδ, co-application with 30 µM ACh
zebrafish α4β2 nAChR [7] = molecular target: T2, zebrafish α4β2 nAChR; conditions: α4β2, ACh control after normal washout
zebrafish α2β2 nAChR [8] = molecular target: T5, zebrafish α2β2 nAChR (Danio rerio, UniProt A0ACM8Q9T8+E7F4S7); conditions: α2β2, ACh control after normal washout
zebrafish α7 nAChR [9] = molecular target: T1, zebrafish α7 nAChR; conditions: α7, data not shown
rat α3β4 nAChR = conditions: rat α3β4, co-application of 100 µM ACh with 3 µM mecamylamine; cited from earlier work
zebrafish [10] = conditions: given 5 minutes before the task (not if 40 minutes prior); cited from earlier work
zebrafish [11] = conditions: cited from earlier work
zebrafish [12] = conditions: cited from earlier work; remark: listed apart in the source
zebrafish α2β2 nAChR [13] = molecular target: T5, zebrafish α2β2 nAChR; test: cell-based
zebrafish α7 nAChR [14] = molecular target: T1, zebrafish α7 nAChR; test: cell-based
zebrafish [15] = conditions: previous work; cited from earlier work
zebrafish α3β4 nAChR [16] = molecular target: T3, zebrafish α3β4 nAChR; test: Agonist-evoked responses, two-electrode voltage clamp in Xenopus oocytes; type: cell-based; conditions: for Emax: read-out: Imax; for Agonist type compared to ACh: α3β4
[17] = molecular target: T4, zebrafish muscle α1β1bεδ nAChR; conditions: for EC50: peak current amplitude
[18] = molecular target: T6, zebrafish α3β4F106Y nAChR (Danio rerio, UniProt A0A0R4ISQ3+A0A8M1QHJ5, F140Y)
zebrafish α2β2 nAChR [19] = molecular target: T5, zebrafish α2β2 nAChR; test: cell-based; remark: listed apart in the source
[20] = molecular target: T4, zebrafish muscle α1β1bεδ nAChR; test: cell-based; conditions: read-out: Imax
zebrafish [21] = conditions: cited from earlier work; remark: listed apart in the source
[22] = molecular target: T6, zebrafish α3β4F106Y nAChR; test: cell-based

In the case of C[N+](C)(C)CCO [choline], the “Activation of fish α7 nAChR” value (zebrafish α7 nAChR [1]) is reported as “activate”, the “Activation of α4β2 receptors by probe concentration” value (“Activation of α4β2 receptors” below) (zebrafish α4β2 nAChR [2]) is reported as “evoked significant responses” and the “Inhibition of ACh-evoked responses of heteromeric nAChR subtypes” value (from here on “Inhibition … of heteromeric nAChR subtypes”) [3] is reported as “relatively ineffective”. For the same compound, the EC50 (human α7 nAChR) was 300 µM.
With COc1cc(O)ccc1/C=C1\CCCN=C1c1cccnc1 [4OH-GTS-21, 3-(4-hydroxy, 2-methoxybenzylidene)anabaseine] the “Activation of fish α7 nAChR” value (zebrafish α7 nAChR [1]) was “activate”, the “Activation of α4β2 receptors” value (zebrafish α4β2 nAChR [2]) was “evoked significant responses” and the “Inhibition … of heteromeric nAChR subtypes” value [3] was “inhibited all of the heteromeric receptors”.
For CNC1(C)C2CCC(C2)C1(C)C (stereo not shown) [mecamylamine], the IC50 (zebrafish α3β4 nAChR [4]; Net charge IC50, α3β4, co-application with 100 µM ACh) was 0.05 ± 0.01 µM, the IC50 (zebrafish α3β4 nAChR [4]; Peak current IC50, α3β4, co-application with 100 µM ACh) was 0.6 ± 0.1 µM and the Reversibility of inhibition (zebrafish α3β4 nAChR [4]; α3β4, 3 µM mecamylamine) was “rapidly reversible”. The “Inhibition of fish versus human receptor subtypes” value [5] was “significantly greater (p < 0.01)”, the Reversibility of inhibition ([6]; muscle-type receptors) was “readily reversible” and the IC50 ([6]; read-out: Net charge IC50) was 0.6 ± 0.07 µM. For the same compound, the IC50 ([6]; read-out: Peak current IC50) was 1.8 ± 0.21 µM, the “Mecamylamine concentration giving significant (>25%) residual inhibition” value (zebrafish α4β2 nAChR [7]) was at least 30 nM and the “Mecamylamine concentration giving significant (>25%) residual inhibition” value (zebrafish α2β2 nAChR [8]) was at least 300 nM. For the same compound, the Reversibility of inhibition (zebrafish α7 nAChR [9]) was “readily reversible”, the “Residual inhibition of ACh control responses following washout” value (rat α3β4 nAChR) was 60% and the “Effect on nicotine-induced improvement in spatial learning task” value (zebrafish [10]) was “blocked this nicotine-induced improvement”. The “Effect on anxiolytic effect of nicotine” value (zebrafish [11]; 200 mg/l mecamylamine) was “blocked”, the “Effect on nicotine-induced increase of dihydroxyphenylacetic acid” value (zebrafish [12]) was “blocked” and the IC50 (zebrafish α2β2 nAChR [13]; Net charge IC50, α2β2, co-application with 30 µM ACh) was 3.5 ± 1.3 µM. It also gave an IC50 (zebrafish α2β2 nAChR [13]; Peak current IC50, α2β2, co-application with 30 µM ACh) of 3 ± 0.7 µM, an IC50 (zebrafish α7 nAChR [14]; Net charge IC50, α7, co-application with 60 µM ACh) of 13 ± 3 µM and an IC50 (zebrafish α7 nAChR [14]; Peak current IC50, α7, co-application with 60 µM ACh) of 28 ± 11 µM.
In the case of CCN1C[C@]2(COC(=O)c3ccccc3N3C(=O)C[C@H](C)C3=O)CC[C@H](OC)[C@@]34[C@@H]5C[C@H]6[C@H](OC)[C@@H]5[C@](O)(C[C@@H]6OC)[C@@](O)([C@@H](OC)[C@H]23)[C@@H]14 [MLA, methyllycaconitine], the “Effect on anxiolytic effects of nicotine” value (zebrafish [11]) is given as “blocked” and the “Effect on nicotine-induced increase in swimming activity” value (zebrafish [15]) is given as “blocked”.
In the case of CO[C@H]1CC=C2CCN3CCC4=C(CC(=O)OC4)[C@]23C1 [DHβE, dihydro-beta-erythroidine], the “Effect on anxiolytic effects of nicotine” value (zebrafish [11]) is listed as “blocked” and the “Effect on nicotine-induced increase in swimming activity” value (zebrafish [15]) is listed as “blocked”.
With O=c1cccc2n1C[C@@H]1CNC[C@H]2C1 [cytisine] the EC50 (zebrafish α7 nAChR [1]) was 15 ± 3 µM, the Emax (zebrafish α7 nAChR [1]) was 116 ± 6% and the “Agonist type compared to ACh” value (zebrafish α7 nAChR [1]) was “full agonist”. For the same compound, the Emax (zebrafish α4β2 nAChR [2]) was 26 ± 1%, the EC50 (zebrafish α3β4 nAChR [16]) was 11 ± 1 µM and the Emax (zebrafish α3β4 nAChR [16]) was 12 ± 0.2%. For the same compound, the “Agonist type compared to ACh” value (zebrafish α3β4 nAChR [16]) was “relatively weak partial agonist”, the EC50 [17] was 460 ± 20 µM and the “Relative amplitude of responses versus wild-type fish α3β4” value ([18]; 100 µM cytisine, relative to 100 µM ACh control responses) was “significantly larger”. For the same compound, the “Effect of the F106Y mutation on efficacy” value ([18]; expressed relative to respective ACh maximums) was “no significant effect”, the EC50 (zebrafish α2β2 nAChR [19]) was 4.1 ± 0.3 µM and the Emax (zebrafish α2β2 nAChR [19]; read-out: Imax) was 9 ± 1%. For the same compound, the Emax [20] was 13 ± 0.3%.
In the case of CN1[C@@H]2CCC[C@H]1CC2 [tropane], the “Activation of fish α7 nAChR” value (zebrafish α7 nAChR [1]) is reported as “activate”, the “Activation of α4β2 receptors” value (zebrafish α4β2 nAChR [2]) is reported as “evoked significant responses” and the “Inhibition … of heteromeric nAChR subtypes” value [3] is reported as “effective at inhibiting the neuronal heteromeric receptor subtypes”.
With CN1CCC[C@H]1c1cccnc1 [nicotine] the EC50 (zebrafish α7 nAChR [1]) was 27 ± 6 µM, the Emax (zebrafish α7 nAChR [1]) was 75 ± 4% and the “Agonist type compared to ACh” value (zebrafish α7 nAChR [1]) was “full agonist”. For the same compound, the Emax (zebrafish α4β2 nAChR [2]) was 70 ± 10%, the “Agonist type compared to ACh” value (zebrafish α4β2 nAChR [2]; α4β2) was “partial agonist” and the EC50 (zebrafish α3β4 nAChR [16]) was 13 ± 6 µM. For the same compound, the Emax (zebrafish α3β4 nAChR [16]) was 17 ± 2%, the “Agonist type compared to ACh” value (zebrafish α3β4 nAChR [16]) was “partial agonist” and the “Agonist type compared to ACh” value [17] was “partial agonist”. For the same compound, the EC50 [17] was 140 ± 50 µM, the “Effect in fish model of anxiety” value (zebrafish [11]; 100 mg/l) was “anxiolytic” and the Dihydroxyphenylacetic acid levels (zebrafish [12]) was “increases dihydroxyphenylacetic acid levels”. The Swimming activity (zebrafish [15]) was “increases swimming activity”, the Emax [20] was 13 ± 3% and the “Performance in delayed spatial alternation task” value (zebrafish [21]; high doses) was “impaired”. For the same compound, the “Performance in delayed spatial alternation task” value (zebrafish [21]; low doses (100 mg/l in the water)) was “improved performance”.
For CC(=O)OCC[N+](C)(C)C [ACh, acetylcholine], the EC50 (zebrafish α7 nAChR [1]) was 39 ± 3 µM, the EC50 (zebrafish α3β4 nAChR [16]) was 73 ± 3 µM and the EC50 [22] was 134 ± 5 µM.
